Tests used:
[1] = target: T1, rat mGluR5 receptor (Rattus norvegicus, UniProt P31424); assay: mGluR5 assay on HEK-expressing rat mGluR5 (fluorescent cell based Ca2+ mobilization assay); conditions: for activation of rat mGluR5 receptors: HEK-rat mGluR5 cell line, without co-addition of glutamate or mGluR5 agonist; for EC50: HEK-293 cells stably expressing rat mGluR5, no co-addition of glutamate, mean of at least three independent experiments in duplicate, read-out: Ca++ Flux (mean EC50)
T1 construct: expressed in transfected cells
T1 sequence (P31424 21-1171 isoform P31424-2 limits assumed): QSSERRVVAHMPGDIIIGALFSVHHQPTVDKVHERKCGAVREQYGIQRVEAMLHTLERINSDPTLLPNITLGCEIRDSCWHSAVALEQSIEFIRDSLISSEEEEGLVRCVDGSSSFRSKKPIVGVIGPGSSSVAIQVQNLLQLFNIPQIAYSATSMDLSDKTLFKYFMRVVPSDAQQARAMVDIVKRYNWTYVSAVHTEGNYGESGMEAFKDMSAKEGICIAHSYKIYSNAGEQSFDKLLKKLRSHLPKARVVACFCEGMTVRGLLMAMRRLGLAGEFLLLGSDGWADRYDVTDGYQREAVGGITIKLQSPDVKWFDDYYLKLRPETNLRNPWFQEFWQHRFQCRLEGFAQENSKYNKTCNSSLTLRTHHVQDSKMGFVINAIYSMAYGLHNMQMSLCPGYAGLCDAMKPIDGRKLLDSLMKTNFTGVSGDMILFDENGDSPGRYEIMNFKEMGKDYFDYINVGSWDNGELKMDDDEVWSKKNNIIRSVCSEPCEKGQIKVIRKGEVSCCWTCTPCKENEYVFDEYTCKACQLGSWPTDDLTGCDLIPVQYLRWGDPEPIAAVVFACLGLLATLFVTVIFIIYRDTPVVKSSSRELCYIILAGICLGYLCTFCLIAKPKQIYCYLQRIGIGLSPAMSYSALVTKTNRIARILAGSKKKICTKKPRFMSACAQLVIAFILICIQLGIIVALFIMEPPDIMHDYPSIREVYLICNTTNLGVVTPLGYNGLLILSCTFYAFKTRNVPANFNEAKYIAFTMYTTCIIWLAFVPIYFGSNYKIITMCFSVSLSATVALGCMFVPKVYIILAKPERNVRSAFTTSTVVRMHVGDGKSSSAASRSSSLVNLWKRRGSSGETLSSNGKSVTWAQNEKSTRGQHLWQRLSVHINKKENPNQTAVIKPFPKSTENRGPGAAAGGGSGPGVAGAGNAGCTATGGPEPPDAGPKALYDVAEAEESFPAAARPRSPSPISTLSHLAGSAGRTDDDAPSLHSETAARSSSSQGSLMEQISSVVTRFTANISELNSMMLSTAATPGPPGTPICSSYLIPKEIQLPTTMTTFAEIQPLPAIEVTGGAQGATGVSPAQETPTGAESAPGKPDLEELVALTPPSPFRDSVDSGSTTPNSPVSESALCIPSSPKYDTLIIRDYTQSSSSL
Procedure: Positive functional expression of HEK-293 cells stably expressing rat mGluR5 receptor was determined by measuring intracellular Ca^2+ changes using a Fluorometric Imaging Plate Reader (FLIPR, Molecular Devices, Sunnyvale, Calif.) in response to glutamate or selective known mGluR5 agonists and antagonists. Rat mGluR5 RT-PCR products in HEK-293 cells were sequenced and found 100% identical to rat mGluR5 Genbank reference sequence (NM_017012). HEK-293 cells expressing rmGluR5 were maintained in media containing DMEM, dialyzed Fetal Bovine Serum (10%), Glutamax™ (2 mM), Penicillin (100 units/ml), Streptomycin (100 μg/ml), Geneticin (100 μg/ml) and Hygromycin-B (40 μg/ml) at 37° C./5% CO2.
After one day of incubation, cells were washed with assay buffer containing: 142 mM NaCl, 6 mM KCl, 1 mM […], 1 mM CaCl2, 20 mM HEPES, 1 g/L glucose, 0.125 mM sulfinpyrazone, pH 7.4. After 60 min of loading with 4 uM Fluo-4 (TefLabs, Austin, Tex.), the cells were washed three times with 50 μl of PBS Buffer and resuspended in 45 μl of assay Buffer. The plates were then transferred to a Fluorometric Imaging Plate Reader (FLIPR, Molecular Devices, Sunnyvale, Calif.) for the assessment of intracellular calcium flux. After monitoring the baseline fluorescence for 10 seconds, increasing concentrations of representative compound (from 0.01 to 60 μM) of the present invention diluted in Assay Buffer (15 μl of 4× dilutions) was added to the cell. The final DMSO concentration in the assay was 0.3%. In each experiment, fluorescence was then monitored as a function of time for 3 minutes and the data analyzed using Microsoft Excel and GraphPad Prism. Each data point was also measured two times.
Under these experimental conditions, this HEK-rat mGluR5 cell line is able to directly detect positive allosteric modulators without the need of co-addition of glutamate or mGluR5 agonist.
The concentration-response curves of representative compounds of the present invention were generated using the Prism GraphPad software (Graph Pad Inc, San Diego, USA). The curves were fitted to a four-parameter logistic equation:
(Y=Bottom+(Top−Bottom)/(1+10̂((LogEC50−X)*Hill Slope)
allowing determination of EC50 values.
The Table 1 below represents the mean EC50 obtained from at least three independent experiments of selected molecules performed in duplicate.

[2] = target: T2, mGluR5 (Rattus norvegicus, UniProt P31424); conditions: Liu et al (2006), Zhang et al (2005); cited from earlier work
T2 construct: positive allosteric modulators of mGluR5 receptors in native preparations; endogenous in cells; host or cells: primary cortical astrocytes from Sprague-Dawley rat embryos (E16-19)
T2 sequence (P31424 21-1203): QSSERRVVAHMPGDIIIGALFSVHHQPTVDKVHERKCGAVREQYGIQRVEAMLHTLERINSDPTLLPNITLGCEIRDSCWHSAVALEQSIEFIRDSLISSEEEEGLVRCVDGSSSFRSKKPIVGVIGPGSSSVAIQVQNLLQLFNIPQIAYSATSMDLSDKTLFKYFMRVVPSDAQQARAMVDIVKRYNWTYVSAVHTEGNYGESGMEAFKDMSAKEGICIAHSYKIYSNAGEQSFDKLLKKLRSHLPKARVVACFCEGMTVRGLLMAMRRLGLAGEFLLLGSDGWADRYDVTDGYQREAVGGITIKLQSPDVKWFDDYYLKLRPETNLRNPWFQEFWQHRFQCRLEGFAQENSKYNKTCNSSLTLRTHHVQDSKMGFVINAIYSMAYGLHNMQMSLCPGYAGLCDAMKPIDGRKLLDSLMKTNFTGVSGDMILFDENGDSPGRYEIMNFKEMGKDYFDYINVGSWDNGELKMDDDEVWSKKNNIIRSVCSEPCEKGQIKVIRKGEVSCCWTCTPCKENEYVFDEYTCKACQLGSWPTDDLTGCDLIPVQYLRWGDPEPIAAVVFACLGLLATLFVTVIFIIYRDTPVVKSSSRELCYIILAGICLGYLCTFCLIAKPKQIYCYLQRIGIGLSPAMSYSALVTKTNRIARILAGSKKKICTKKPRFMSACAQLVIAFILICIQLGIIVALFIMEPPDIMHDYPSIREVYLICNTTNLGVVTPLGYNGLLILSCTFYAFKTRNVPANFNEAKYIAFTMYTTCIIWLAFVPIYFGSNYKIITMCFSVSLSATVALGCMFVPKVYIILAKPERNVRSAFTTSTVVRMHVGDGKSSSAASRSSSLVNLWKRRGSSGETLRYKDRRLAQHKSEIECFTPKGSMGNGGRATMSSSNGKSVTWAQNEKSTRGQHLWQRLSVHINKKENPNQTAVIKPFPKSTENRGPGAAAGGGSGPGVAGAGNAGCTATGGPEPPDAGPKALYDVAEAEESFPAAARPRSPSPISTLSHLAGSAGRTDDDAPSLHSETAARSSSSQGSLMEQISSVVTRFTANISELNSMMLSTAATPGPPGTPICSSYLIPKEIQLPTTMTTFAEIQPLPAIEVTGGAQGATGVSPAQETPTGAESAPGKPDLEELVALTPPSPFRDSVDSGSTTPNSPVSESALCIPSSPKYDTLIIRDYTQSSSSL

[3] = target: T2, mGluR5; assay: mGluR5 binding assay ([3H]-MPEP, rat brain membranes); conditions: 3 nM [3H]-MPEP, 1 h at 4° C.
Text: Activity of compounds of the invention was examined following a radioligand binding technique using whole rat brain and tritiated 2-methyl-6-(phenylethynyl)-pyridine ([^3H]-MPEP) as a ligand following similar methods than those described in Gasparini et al. (2002) Bioorg. Med. Chem. Lett. 12:407-409 and in Anderson et al. (2002) J. Pharmacol. Exp. Ther. 303 (3) 1044-1051.
Cortices were dissected out from brains of 200-300g Sprague-Dawley rats (Charles River Laboratories, L'Arbresle, France). Tissues were homogenized in 10 volumes (vol/wt) of ice-cold 50 mM HEPES-NaOH (pH 7.4) using a Polytron disrupter (Kinematica AG, Luzern, Switzerland) and centrifuged for 30 min at 40,000 g. (4° C.). […] Protein concentration was determined by the Bradford method (Bio-Rad protein assay, Reinach, Switzerland) with bovine serum albumin as standard.
Membranes were thawed and resuspended in binding buffer containing 20 mM HEPES-NaOH, 3 mM MgCl2, 3 mM CaCl2, 100 mM NaCl, pH 7.4. […] Radioactivity was determined by liquid scintillation spectrometry using a 96-well plate reader (TopCount, Perkin-Elmer, Downers Grove, USA).
The inhibition curves were generated using the Prism GraphPad program (Graph Pad Software Inc, San Diego, USA). […] The mean of IC50 obtained from at least three independent experiments of selected molecules performed in duplicate were calculated.

Row | activation of rat mGluR5 receptors [1] | EC50 [1] | IC50 [3] | melting point | SMILES | activity in rat cortical astrocytes culture in the absence of added glutamate [2]
1 | activating | – | – | – | N#Cc1cccc(C(=O)Nc2cc(-c3ccccc3)nn2-c2ccccc2)c1 [CDPPB, reference compound] | inactive
2 | activating | – | – | – | O=C(Nc1ccc(Cl)cc1CN1C(=O)c2ccccc2C1=O)c1ccccc1O [CPPHA, reference compound] | inactive
3 | activating | – | – | – | Fc1cccc(/C=N/N=C/c2cccc(F)c2)c1 [DFB, reference compound] | inactive
4 | – | < 1000 nM | < 30 µM | 130 to 135 °C | O=C(c1ccc(F)cc1)N1CCC[C@H](c2nc(-c3ccc[nH]3)no2)C1 [Example 1, (4-Fluoro-phenyl)-{(S)-3-[3-(1H-pyrrol-2-yl)-[1,2,4]oxadiazol-5-yl]-piperidin-1-yl}-methanone] | –
5 | – | 1000 to 10000 nM | – | 175.6 to 177.2 °C | Cc1oncc1C(=O)N1CCCC(c2noc(-c3cc4ccccc4[nH]3)n2)C1 (stereo not shown) [Example 26, {3-[5-(1H-Indol-2-yl)-[1,2,4]oxadiazol-3-yl]-piperidin-1-yl}-(5-methyl-isoxazol-4-yl)-methanone] | –
6 | – | < 1000 nM | – | 183 °C | Cc1c[nH]c(-c2nc([C@H]3CCCN(C(=O)c4ccc(F)cc4)C3)no2)c1 [Example 27, (4-Fluoro-phenyl)-{(S)-3-[5-(4-methyl-1H-pyrrol-2-yl)-[1,2,4]oxadiazol-3-yl]-piperidin-1-yl}-methanone] | –
7 | – | < 1000 nM | – | 188 to 190 °C | Cc1c[nH]c(-c2noc([C@H]3CCCN(C(=O)c4ccc(F)cc4)C3)n2)c1 [Example 31, (4-Fluoro-phenyl)-{(S)-3-[3-(4-methyl-1H-pyrrol-2-yl)-[1,2,4]oxadiazol-5-yl]-piperidin-1-yl}-methanone] | –
8 | – | < 1000 nM | – | 166 to 167 °C | Cc1c[nH]c(-c2noc([C@H]3CCCN(C(=O)c4ccc(F)c(F)c4)C3)n2)c1 [Example 32, (3,4-Difluoro-phenyl)-{(S)-3-[3-(4-methyl-1H-pyrrol-2-yl)-[1,2,4]oxadiazol-5-yl]-piperidin-1-yl}-methanone] | –
9 | – | < 1000 nM | – | 157 to 158 °C | O=C(c1ccc(F)cc1)N1CCC[C@H](c2noc(-c3cc([N+](=O)[O-])c[nH]3)n2)C1 [Example 36, (4-Fluoro-phenyl)-{(S)-3-[5-(4-nitro-1H-pyrrol-2-yl)-[1,2,4]oxadiazol-3-yl]-piperidin-1-yl}-methanone] | –
10 | – | 1000 to 10000 nM | – | 132 to 133 °C | O=C(c1ccc(F)cc1)N1CCC[C@@H](c2nc(-c3ccc[nH]3)no2)C1 [Example 37, (4-Fluoro-phenyl)-{(R)-3-[3-(1H-pyrrol-2-yl)-[1,2,4]oxadiazol-5-yl]-piperidin-1-yl}-methanone] | –
11 | – | 1000 to 10000 nM | – | 114.8 to 118 °C | O=C(c1ccc(F)cc1)N1CCCC(F)(c2nc(-c3ccc[nH]3)no2)C1 (stereo not shown) [Example 47, (4-Fluoro-phenyl)-{3-fluoro-3-[3-(1H-pyrrol-2-yl)-[1,2,4]oxadiazol-5-yl]-piperidin-1-yl}-methanone] | –
12 | – | < 1000 nM | – | 146.5 to 147.2 °C | O=C(c1ccc(F)cc1)N1CCC[C@H](c2nc(-c3cc(F)c[nH]3)no2)C1 [Example 50, (4-Fluoro-phenyl)-{(S)-3-[3-(4-fluoro-1H-pyrrol-2-yl)-[1,2,4]oxadiazol-5-yl]-piperidin-1-yl}-methanone] | –
13 | – | < 1000 nM | – | 147.5 to 148.2 °C | O=C(c1ccc(F)c(F)c1)N1CCC[C@H](c2nc(-c3cc(F)c[nH]3)no2)C1 [Example 51, (3,4-Difluoro-phenyl)-{(S)-3-[3-(4-fluoro-1H-pyrrol-2-yl)-[1,2,4]oxadiazol-5-yl]-piperidin-1-yl}-methanone] | –
14 | – | 1000 to 10000 nM | – | 204.8 to 205.6 °C | N#Cc1c[nH]c(-c2nc([C@H]3CCCN(C(=O)c4ccc(F)cc4)C3)no2)c1 [Example 72, (4-Fluoro-phenyl)-{(S)-3-[5-(4-cyano-1H-pyrrol-2-yl)-[1,2,4]oxadiazol-3-yl]-piperidin-1-yl}-methanone] | –
15 | – | > 10000 nM | – | 183.5 °C | O=C(c1ccc(F)cc1)N1CCC[C@H](c2noc(-c3cc(C(F)(F)F)c[nH]3)n2)C1 [Example 76, (4-Fluoro-phenyl)-{(S)-3-[5-(4-trifluoromethyl-1H-pyrrol-2-yl)-[1,2,4]oxadiazol-3-yl]-piperidin-1-yl}-methanone] | –
